{
  "source": "patent US9598410B2",
  "about": "“Substituted 4,5,6,7-tetrahydro-1H-pyrazolo[4,3-C]pyridines, their use as medicament, and pharmaceutical preparations comprising them” (SANOFI, priority 2011, dated 2017)",
  "biological_target": "Human TASK-1 channels (Homo sapiens (Human), UniProt O14649)",
  "sequence (O14649 whole entry, the tested form may be a part)": "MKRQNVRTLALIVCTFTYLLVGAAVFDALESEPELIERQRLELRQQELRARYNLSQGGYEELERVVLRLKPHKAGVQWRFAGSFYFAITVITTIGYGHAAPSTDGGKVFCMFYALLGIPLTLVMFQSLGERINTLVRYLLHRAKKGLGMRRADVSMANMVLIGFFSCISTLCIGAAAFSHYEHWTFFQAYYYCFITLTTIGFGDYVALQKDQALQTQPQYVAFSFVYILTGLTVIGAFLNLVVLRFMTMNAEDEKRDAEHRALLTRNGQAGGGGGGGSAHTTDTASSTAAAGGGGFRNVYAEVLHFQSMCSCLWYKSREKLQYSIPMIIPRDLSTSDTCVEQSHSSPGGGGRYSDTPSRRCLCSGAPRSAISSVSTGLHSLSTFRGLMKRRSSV",
  "test": "Activity on the TASK-1 channel in Xenopus oocytes (two-microelectrode voltage clamp)",
  "type": "cell-based",
  "details": "percentage inhibition of TASK-1 control current",
  "protocol": "Human TASK-1 channels were expressed in Xenopus oocytes. […] Subsequently, TASK-1-encoding RNA synthesized in vitro was injected into oocytes. […] Oocytes were continuously superfused with ND96 buffer containing: NaCl 96 mM, KCl 2 mM, CaCl2 1.8 mM, MgCl2 1 mM, HEPES 5 mM (pH adjusted to 7.4 with NaOH). All experiments were performed at room temperature.\nIC50 values were obtained by fitting the data to the general dose-response equation.",
  "data": [
    {"molecule": "COc1ccnc(Cn2nc(-c3cccc(C(F)(F)F)c3)c3c2CCN(C(C)=O)C3)c1", "note": "[Example 6q, 1-[1-(4-Methoxy-pyridin-2-ylmethyl)-3-(3-trifluoromethyl-phenyl)-1,4,6,7-tetrahydro-pyrazolo[4,3-c]pyridin-5-yl]-ethanone]", "values": [
      {"measurement": "Inhibition (%) at 5 μM", "result": 70, "unit": "%"}
    ]}
  ]
}
